Measured values from US10752604B2, “C-glucoside derivative containing fused phenyl ring or pharmaceutically acceptable salt thereof, process for preparing same, and pharmaceutical composition comprising same” (Je II Pharmaceutical Co., Ltd., priority 2016, dated 2020).

Key:
human SGLT1 = human SGLT1 (Homo sapiens (Human), UniProt P13866); assay: Inhibitory effect on human SGLT1 activity (14C-AMG uptake in CHO cells expressing hSGLT1); assay type: cell-based; conditions: 14C-AMG transport, CHO cells expressing hSGLT1, 2 hours
human SGLT1, sequence (P13866 whole entry): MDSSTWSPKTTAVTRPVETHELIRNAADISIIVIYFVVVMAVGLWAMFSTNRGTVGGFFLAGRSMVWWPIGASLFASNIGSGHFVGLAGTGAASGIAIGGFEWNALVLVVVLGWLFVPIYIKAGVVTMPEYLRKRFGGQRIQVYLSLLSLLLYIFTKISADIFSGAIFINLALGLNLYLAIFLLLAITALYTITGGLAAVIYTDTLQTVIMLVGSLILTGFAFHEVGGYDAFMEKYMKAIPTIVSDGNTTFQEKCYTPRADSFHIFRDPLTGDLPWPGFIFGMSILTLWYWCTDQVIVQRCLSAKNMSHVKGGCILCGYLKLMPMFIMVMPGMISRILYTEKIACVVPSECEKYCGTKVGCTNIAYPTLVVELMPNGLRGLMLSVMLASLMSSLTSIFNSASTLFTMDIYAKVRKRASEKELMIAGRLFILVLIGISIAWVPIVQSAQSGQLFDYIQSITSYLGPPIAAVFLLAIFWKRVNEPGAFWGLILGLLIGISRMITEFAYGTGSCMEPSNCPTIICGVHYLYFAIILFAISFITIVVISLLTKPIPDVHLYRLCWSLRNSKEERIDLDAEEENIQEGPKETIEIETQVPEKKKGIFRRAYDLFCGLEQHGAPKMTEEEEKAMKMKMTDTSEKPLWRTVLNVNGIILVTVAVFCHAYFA
Text: (§1) Human SGLT1 (hSGLT1), human SGLT2 (hSGLT2) genes were amplified from a human marathon-ready cDNA library (Clontech)) by means of an PCR method, after which resulting amplified sequences were combined with a pcDNA 3.1(+) vector, which was a mammalian expression vector, so as to prepare recombinant expression vectors pcDNA3.1(+)/hSGLT1, pcDNA3.1(+)/hSGLT2. Resulting recombinant expression vectors were transformed into Chinese Hamster Ovarian cells, after which stably transformed clones were selected by means of a colony picking method by using a resistance to G418, a selective marker included in the vector. Out of selected clones, clones for expressing hSGLT1 and hSGLT2 were selected based on activity in analysis of ^14C-α-methyl-D-glucopyranoside (^14C-AMG) transport.
To analyze a sodium-dependent glucose transport, cells for expressing hSGLT1 and hSGLT2 were seeded at 1×10^5 cells per well into a 96-well culture plate, after which resulting cells were cultured in an RPMI 1640 medium containing 10% fetal bovine serum (FBS). In 1 day after culture, the resulting cells were cultured in a pre-treatment buffer solution (10 mM HEPES, 5 mM tris, 140 mM choline chloride, 2 mM KCl, 1 mM CaCl2 and 1 mM MgCl2, pH 7.4) under 37° C./5% CO2 conditions for 10 minutes. Then, the resulting cells were cultured in a uptake buffer solution (10 mM HEPES, 5 mM tris, 140 mM NaCl, 2 mM KCl, 1 mM CaCl2, 1 mM MgCl2 and 1 mM AMGS pH 7.4) containing 14C-AMG (8 μM) and a compound of the present disclosure or a dimethyl sulfoxide (DMSO) vehicle under 37° C./5% CO2 conditions for 2 hours. After culture, the cells were washed twice with a washing buffer solution (a pre-treatment buffer solution containing 10 mM AMG at room temperature), after which a radiation thereof was measured by using a liquid scintillation counter. IC50 of each compound was measured according to a non-linear regression analysis by using SigmaPlot (Document Analytical Biochemistry 429: 70-75, Molecular and Cellular Biochemistry 280: 91-98, 2005). SGLT1/2 in-vitro assay results are shown in a following Table 1.

human SGLT2 = human SGLT2 (Homo sapiens (Human), UniProt P31639); assay: Inhibitory effect on human SGLT2 activity (14C-AMG uptake in CHO cells expressing hSGLT2); assay type: cell-based; conditions: 14C-AMG transport, CHO cells expressing hSGLT2, 2 hours
human SGLT2, sequence (P31639 whole entry): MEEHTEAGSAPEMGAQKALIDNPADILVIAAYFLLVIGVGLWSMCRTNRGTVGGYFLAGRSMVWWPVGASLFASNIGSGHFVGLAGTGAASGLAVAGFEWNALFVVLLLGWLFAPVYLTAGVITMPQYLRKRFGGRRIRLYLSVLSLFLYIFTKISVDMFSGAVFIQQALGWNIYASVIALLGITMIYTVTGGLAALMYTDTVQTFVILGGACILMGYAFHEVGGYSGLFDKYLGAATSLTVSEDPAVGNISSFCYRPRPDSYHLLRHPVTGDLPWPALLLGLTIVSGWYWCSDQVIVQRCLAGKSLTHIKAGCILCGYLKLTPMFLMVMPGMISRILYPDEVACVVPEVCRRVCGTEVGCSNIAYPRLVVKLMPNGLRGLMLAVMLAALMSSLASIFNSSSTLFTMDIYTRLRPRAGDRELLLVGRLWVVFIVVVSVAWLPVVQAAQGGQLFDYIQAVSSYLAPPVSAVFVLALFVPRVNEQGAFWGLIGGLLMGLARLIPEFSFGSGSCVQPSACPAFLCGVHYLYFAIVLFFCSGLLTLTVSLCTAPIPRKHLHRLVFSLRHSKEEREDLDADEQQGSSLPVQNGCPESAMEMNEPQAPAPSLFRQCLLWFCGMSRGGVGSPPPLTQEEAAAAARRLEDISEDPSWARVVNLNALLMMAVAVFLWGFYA
Text: as §1
In 1 day after culture, the resulting cells were cultured in a pre-treatment buffer solution (10 mM HEPES, 5 mM tris, 140 mM choline chloride, 2 mM KCl, 1 mM CaCl2 and 1 mM MgCl2, pH 7.4) under 37° C./5% CO2 conditions for 10 minutes. Then, the resulting cells were cultured in a uptake buffer solution (10 mM HEPES, 5 mM tris, 140 mM NaCl, 2 mM KCl, 1 mM CaCl2, 1 mM MgCl2 and 1 mM AMGS pH 7.4) containing 14C-AMG (8 μM) and a compound of the present disclosure or a dimethyl sulfoxide (DMSO) vehicle under 37° C./5% CO2 conditions for 2 hours. After culture, the cells were washed twice with a washing buffer solution (a pre-treatment buffer solution containing 10 mM AMG at room temperature), after which a radiation thereof was measured by using a liquid scintillation counter.

| SMILES | IC50 (human SGLT1) [nM] | IC50 (human SGLT2) [nM] |
| --- | --- | --- |
| CCCc1ccc(Cc2cc([C@@H]3O[C@H](CO)C(O)[C@H](O)C3O)c(C)c3c2CCC3)cc1 (stereo in doubt) [Example 6, (2R,3S,4R,5R,6S)-2-(hydroxymethyl)-6-(4-methyl-7-(4-propylbenzyl)-2,3-dihydro-1H-indene-5-yl)tetrahydro-2H-pyran-3,4,5-triol] | 190 |  |
| Cc1c(C2O[C@H](CO)C(O)[C@H](O)C2O)cc(Cc2ccc(C(C)C)cc2)c2c1CCC2 (stereo in doubt) [Example 7, (2R,3S,4R,5R,6S)-2-(hydroxymethyl)-6-(7-(4-isopropylbenzyl)-4-methyl-2,3-dihydro-1H-indene-5-yl)tetrahydro-2H-pyran-3,4,5-triol] | 296 |  |
| Cc1ccc([C@@H]2O[C@H](CO)[C@@H](O)[C@H](O)[C@H]2O)cc1Cc1ccc(-c2ccc(F)cc2)s1 [Canagliflozin, reference compound] | 550 | 4.9 |
| C=Cc1ccc(Cc2cc([C@@H]3O[C@H](CO)[C@@H](O)[C@H](O)[C@H]3O)c(C)c3c2OCC3)cc1 [Example 34, (2R,3S,4R,5R,6S)-2-(hydroxymethyl)-6-(4-methyl-7-(4-vinylbenzyl)-2,3-dihydrobenzofuran-5-yl)tetrahydro-2H-pyran-3,4,5-triol] | 295 |  |
| CCCc1c([C@@H]2O[C@H](CO)[C@@H](O)[C@H](O)[C@H]2O)cc(Cc2ccc(OC)cc2)c2c1CCC2 [Example 52, (2R,3S,4R,5R,6S)-2-(hydroxymethyl)-6-(7-(4-methoxybenzyl)-4-propyl-2,3-dihydro-1H-indene-5-yl)tetrahydro-2H-pyran-3,4,5-triol] | 236 | 9.04 |
| CCCCc1c([C@@H]2O[C@H](CO)[C@@H](O)[C@H](O)[C@H]2O)cc(Cc2ccc(OC)cc2)c2c1CCC2 [Example 57, (2S,3R,4R,5S,6R)-2-(4-butyl-7-(4-methoxybenzyl)-2,3-dihydro-1H-indene-5-yl)-6-(hydroxymethyl)tetrahydro-2H-pyran-3,4,5-triol] | 373 | 5.86 |
| CCCCc1c([C@@H]2O[C@H](CO)[C@@H](O)[C@H](O)[C@H]2O)cc(Cc2ccc(C)cc2)c2c1CCC2 [Example 58, (2S,3R,4R,5S,6R)-2-(4-butyl-7-(4-methylbenzyl)-2,3-dihydro-1H-indene-5-yl)-6-(hydroxymethyl)tetrahydro-2H-pyran-3,4,5-triol] | 289 | 12.1 |
| COc1ccc(Cc2cc([C@@H]3O[C@H](CO)[C@@H](O)[C@H](O)[C@H]3O)c(C(C)C)c3c2CCC3)cc1 [Example 61, (2R,3S,4R,5R,6S)-2-(hydroxymethyl)-6-(4-isopropyl-7-(4-methoxybenzyl)-2,3-dihydro-1H-indene-5-yl)tetrahydro-2H-pyran-3,4,5-triol] | 199 | 2.04 |
| Cc1ccc(Cc2cc([C@@H]3O[C@H](CO)[C@@H](O)[C@H](O)[C@H]3O)c(CC(C)C)c3c2CCC3)cc1 [Example 64, (2R,3S,4R,5R,6S)-2-(hydroxymethyl)-6-(4-isobutyl-7-(4-methylbenzyl)-2,3-dihydro-1H-indene-5-yl)tetrahydro-2H-pyran-3,4,5-triol] | 518 | 19.1 |
| CCc1ccc(Cc2cc([C@@H]3O[C@H](CO)[C@@H](O)[C@H](O)[C@H]3O)c(CC(C)C)c3c2CCC3)cc1 [Example 65, (2S,3R,4R,5S,6R)-2-(7-(4-ethylbenzyl)-4-isobutyl-2,3-dihydro-1H-indene-5-yl)-6-(hydroxymethyl)tetrahydro-2H-pyran-3,4,5-triol] | 1610 | 38 |

Stronger by IC50 (human SGLT1), values ahead:

| IC50 (human SGLT1) [nM] | IC50 (human SGLT2) [nM] | SMILES |
| --- | --- | --- |
| 142 |  | Cc1c([C@@H]2O[C@H](CO)C(O)[C@H](O)C2O)cc(Cc2ccc(OC(C)C)cc2)c2c1CCC2 (stereo in doubt) [Example 3, (2R,3S,4R,5R,6S)-2-(hydroxymethyl)-6-(7-(4-isopropoxybenzyl)-4-methyl-2,3-dihydro-1H-indene-5-yl)tetrahydro-2H-pyran-3,4,5-triol] |
| 40 | 2.8 | CCc1ccc(Cc2cc([C@@H]3O[C@H](CO)C(O)[C@H](O)C3O)c(C)c3c2CCC3)cc1 (stereo in doubt) [Example 5, (2S,3R,4R,5S,6R)-2-(7-(4-ethylbenzyl)-4-methyl-2,3-dihydro-1H-indene-5-yl)-6-(hydroxymethyl)tetrahydro-2H-pyran-3,4,5-triol] |
| 9.1 | 1.3 | COc1ccc(Cc2cc([C@@H]3O[C@H](CO)[C@@H](O)[C@H](O)[C@H]3O)c(C)c3c2CCC3)cc1 [Example 1, (2R,3S,4R,5R,6S)-2-(hydroxymethyl)-6-(7-(4-methoxybenzyl)-4-methyl-2,3-dihydro-1H-indene-5-yl)tetrahydro-2H-pyran-3,4,5-triol] |
| 76 | 3 | CCOc1ccc(Cc2cc([C@@H]3O[C@H](CO)[C@@H](O)[C@H](O)[C@H]3O)c(C)c3c2CCC3)cc1 [Example 2, (2S,3R,4R,5S,6R)-2-(7-(4-ethoxybenzyl)-4-methyl-2,3-dihydro-1H-indene-5-yl)-6-(hydroxymethyl)tetrahydro-2H-pyran-3,4,5-triol] |
| 15 | 1.2 | CSc1ccc(Cc2cc([C@@H]3O[C@H](CO)[C@@H](O)[C@H](O)[C@H]3O)c(C)c3c2CCC3)cc1 [Example 13] |
| 14.3 |  | Cc1c([C@@H]2O[C@H](CO)[C@@H](O)[C@H](O)[C@H]2O)cc(Cc2ccc(Cl)cc2)c2c1CCC2 [Example 16, (2S,3R,4R,5S,6R)-2-(7-(4-chlorobenzyl)-4-methyl-2,3-dihydro-1H-indene-5-yl)-6-(hydroxymethyl)tetrahydro-2H-pyran-3,4,5-triol] |
| 41.8 | 3.68 | CCc1c([C@@H]2O[C@H](CO)[C@@H](O)[C@H](O)[C@H]2O)cc(Cc2ccc(C)cc2)c2c1CCC2 [Example 41, (2S,3R,4R,5S,6R)-2-(4-ethyl-7-(4-methylbenzyl)-2,3-dihydro-1H-indene-5-yl)-6-(hydroxymethyl)tetrahydro-2H-pyran-3,4,5-triol] |
| 60.5 | 2.73 | CCc1c([C@@H]2O[C@H](CO)[C@@H](O)[C@H](O)[C@H]2O)cc(Cc2ccc(OC)cc2)c2c1CCC2 [Example 42, (2S,3R,4R,5S,6R)-2-(4-ethyl-7-(4-methoxybenzyl)-2,3-dihydro-1H-indene-5-yl)-6-(hydroxymethyl)tetrahydro-2H-pyran-3,4,5-triol] |
| 94.7 | 1.83 | CCCc1c([C@@H]2O[C@H](CO)[C@@H](O)[C@H](O)[C@H]2O)cc(Cc2ccc(C)cc2)c2c1CCC2 [Example 53, (2R,3S,4R,5R,6S)-2-(hydroxymethyl)-6-(7-(4-methylbenzyl)-4-propyl-2,3-dihydro-1H-indene-5-yl)tetrahydro-2H-pyran-3,4,5-triol] |
